Assay results published in article PMC11799985 (ACS Omega, 2024).
Entries after “also recorded” stand apart in the source; their conditions may differ. Where two headings read alike, the source gives them in different places.

Molecular target: T1, TbSir2rp1 (Trypanosoma brucei brucei, UniProt Q57V41)
T1 construct: The TbSir2rp1 gene was cloned into the pET24(+) expression plasmid (Novagen); His tag; made in house; host or cells: Escherichia coli BL21-Codon Plus (DE3)-RIL
T1 sequence (Q57V41 1-351): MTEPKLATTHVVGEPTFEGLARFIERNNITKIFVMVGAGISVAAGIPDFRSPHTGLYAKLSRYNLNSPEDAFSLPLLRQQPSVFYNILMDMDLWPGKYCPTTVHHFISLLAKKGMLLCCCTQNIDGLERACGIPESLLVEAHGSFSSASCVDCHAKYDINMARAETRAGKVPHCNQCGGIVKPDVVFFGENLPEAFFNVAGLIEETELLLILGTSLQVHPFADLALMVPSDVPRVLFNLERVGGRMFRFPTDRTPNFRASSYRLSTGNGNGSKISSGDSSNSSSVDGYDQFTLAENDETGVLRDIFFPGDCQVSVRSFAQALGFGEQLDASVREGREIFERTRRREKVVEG
Test: biochemical
Conditions: for ligand efficiency (LE): LE = –R·T·ln(IC50)/HAC, from TbSir2rp1 IC50; for IC50: enzyme 1 μM, NAD+ 100 μM, acetylated peptide 50 μM, 37 °C, 2 h; for Hill coefficient (nH): concentration–response curve against TbSir2rp1
Protocol: The acetylated peptide corresponds to the sequence Abz-Gly-Pro-acetylLys-SerGln–EDDnp, where Abz is ortho-aminobenzoic acid and EDDnp is N-[2,4-dinitrophenyl]ethylenediamine.
To halt the deacetylation reaction, 4 mM nicotinamide was used. For each pair of wells in the 96-well plate, 0.2 mg/mL of trypsin was added to only one well to hydrolyze the acetylated peptide, enabling fluorescence emission. Fluorescence was measured immediately at 420 nm with excitation at 320 nm using a SpectraMax M2 microplate reader (Molecular Devices).
Deacetylation activity was determined by the difference between the well where trypsin was added and the well without trypsin. All assays were performed in triplicate, and activity values were reported as means ± standard deviations with outliers identified and excluded from the calculations. Statistical analyses were conducted using Prism 7 software (GraphPad).
The screening of the 90 fragments was performed at a single concentration of 500 μM in triplicate. The enzyme was used at 1 μM, and the substrates NAD^+ and acetylated peptide were used at 100 and 50 μM, respectively. Incubation was carried out at 37.0 °C for 2 h. Each fragment was added to a pair of wells, with trypsin being added to only one well, as previously described for inhibitory activity calculation. […] Ligand efficiency (LE) was calculated as LE = –R·T·ln(IC50)/HAC using IC50 values instead of KD for comparison. […] The inhibition mechanism was characterized using Lineweaver–Burk plots under five concentrations of each substrate and three concentrations of the fragment. IC50 values were determined with at least seven different concentrations, and Lineweaver–Burk analysis used six concentrations.

[1] = read-out: % Inhibition TbSir2rp1, Table S2, complete fragment library, single concentration of 500 μM
[2] = read-out: % Inhibition TbSir2rp1 at 500 μM, Table 1, fragment 500 μM, triplicate, mean ± SD

Row | Compound | inhibition at 500 µM [1] [%] | also measured
1 | C(=N\c1nncs1)/c1ccc(Sc2ccccc2)cc1 | 38 ± 1.7 | 
2 | C(=N\c1nnc(Cc2ccccc2)o1)/c1ccccc1 | 41 ± 12 | 
3 | CS(=O)(=O)Nc1cccc(-c2nc3ccccc3[nH]2)c1 | -0.8 ± 4.1 | 
4 | Nc1cc2nc(-c3cccc(C(F)(F)F)c3)cn2cn1 | 19 ± 28 | 
5 | O=C1C(O)=C(Nc2ccc(F)cc2)C(=O)c2ccccc21 | 71 ± 23 | 
6 | Cc1cccc(C)c1NC1=C(O)C(=O)c2ccccc2C1=O | 39 ± 4.6 | 
7 | CC(C)NCC1CCc2cc(CO)c([N+](=O)[O-])cc2N1 (stereo not drawn) |  | inhibition at 500 µM (read-out: % Inhibition TbSir2rp1): 24 ± 7.9%
8 | Cc1cn([C@H]2C[C@H](N=[N+]=[N-])[C@@H](CO)O2)c(=O)[nH]c1=O | 8.2 ± 1.4 | 
9 | CN1C(=O)CN=C(c2ccccc2)c2cc(Cl)ccc21 | 37 ± 2.2 | 
10 | NC(=O)c1ncn([C@@H]2O[C@H](CO)[C@@H](O)[C@H]2O)n1 | -11 ± 11 | 
11 | c1ccc(C2CN3CCSC3=N2)cc1 (stereo not drawn) [C12=NC(C3=CC=CC=C3)CN1CCS2] | 10 ± 1.4 | 
12 | C/C(=N\NC(N)=O)c1ccncc1 [C/C(C1=CC=NC=C1)=N\NC(N)=O] | 31 ± 13 | 
13 | Cc1oc2ncccc2c1C(=O)O [CC1=C(C(O)=O)C2=C(O1)N=CC=C2] | 19 ± 17 | 
14 | CCOC(=O)c1c(C)oc2nc(Cl)ccc12 [CC1=C(C(OCC)=O)C2=C(O1)N=C(Cl)C=C2] | -29 ± 18 | 
15 | CCOC(=O)c1c(C)oc2ncc(Br)cc12 [CC1=C(C(OCC)=O)C2=C(O1)N=CC(Br)=C2] | -7.1 ± 9.1 | 
16 | CCOC(=O)c1c(C)oc2ncccc12 [CC1=C(C(OCC)=O)C2=C(O1)N=CC=C2] | -29 ± 12 | 
17 | CCOC(=O)c1c(C)oc2c1ccc[n+]2[O-] [CC1=C(C(OCC)=O)C2=C(O1)[N+]([O-])=CC=C2] | -2.9 ± 10 | 
18 | Cc1ccc(S(=O)(=O)n2ncc3ccccc32)cc1 [CC1=CC=C(S(N2N=CC3=C2C=CC=C3)(=O)=O)C=C1] | 4 ± 30 | 
19 | Cc1ccc(S(=O)(=O)n2cccn2)cc1 [CC1=CC=C(S(N2N=CC=C2)(=O)=O)C=C1] | 8.4 ± 20 | 
20 | Cc1ncc([N+](=O)[O-])n1CCO [CC1=NC=C([N+]([O-])=O)N1CCO] | 14 ± 3.1 | 
21 | CC(C)Cc1ccc(C(C)C(=O)O)cc1 (stereo not drawn) [CC(C1=CC=C(CC(C)C)C=C1)C(O)=O] | -2.1 ± 0.21 | 
22 | CC(C)(Oc1ccc(C2CC2(Cl)Cl)cc1)C(=O)O (stereo not drawn) [CC(C)(OC1=CC=C(C2C(Cl)(Cl)C2)C=C1)C(O)=O] | 4.9 ± 4.7 | 
23 | CCOc1ccc(NC(C)=O)cc1 [CC(NC1=CC=C(OCC)C=C1)=O] | -5.5 ± 1.5 | 

Row | Compound | inhibition at 500 µM [1] [%] | also measured
24 | CC(=O)Nc1ccccc1 [CC(NC1=CC=CC=C1)=O] | 7.7 ± 21 | 
25 | CCOC1NN=C(c2ccccc2)N1 (stereo not drawn) [CCOC1NC(C2=CC=CC=C2)=NN1] | -3.3 ± 1.9 | 
26 | COc1cc(C)c(NC(C)=O)cn1 [COC1=NC=C(NC(C)=O)C(C)=C1] | 1.6 ± 13 | 
27 | COc1cc2cn[nH]c2cn1 [COC1=NC=C(NN=C2)C2=C1] | 56 ± 15 | 
28 | CS(=O)(=O)Nc1cccc(-c2ccccc2)c1 [CS(NC1=CC=CC(C2=CC=CC=C2)=C1)(=O)=O] | 35 ± 3.7 | 
29 | CN[C@@H](C)[C@H](O)c1ccccc1 [C[C@H](NC)[C@@H](C1=CC=CC=C1)O] | 23 ± 6.4 | 
30 | O=S(=O)(c1ccc(Cl)cc1)c1ccc(Cl)cc1 [ClC1=CC=C(S(C2=CC=C(Cl)C=C2)(=O)=O)C=C1] | 44 ± 12 | 
31 | CC(=O)n1ncc2cc(Cl)ncc21 [ClC1=NC=C(N(C(C)=O)N=C2)C2=C1] | 19 ± 9.9 | 
32 | Cc1cc(Cl)ncc1N [ClC1=NC=C(N)C(C)=C1] | 8.8 ± 19 | 
33 | Nc1ccc(C(=O)c2ccccc2)cc1 [Fragment 1.2] |  | ligand efficiency (LE): 0.37; IC50 (TbSir2rp1, read-out: IC50): 80.9 µM; Hill coefficient (nH): 0.72; inhibition mechanism (Lineweaver–Burk plot) (for both substrates, acetylated peptide and NAD+): competitive
34 | Sc1nc2ccccc2s1 [Fragment 1.3] |  | IC50 (IC50, TbSir2rp1): 125 µM; ligand efficiency (LE): 0.54; Hill coefficient (nH): 1.04
35 | CCOc1ccc2nc(N)sc2c1 [Fragment 1.4] |  | inhibition of TbSir2rp1 (in words): did not inhibit; also recorded: No inhibition
36 | Nc1ccc(Nc2ccccc2)cc1 [Fragment 1.5] |  | IC50 (TbSir2rp1, read-out: IC50): > 500 µM
37 | CCc1[nH][nH]c(=O)c1-c1cccnc1O [Fragment 3] | 88 ± 14 | ligand efficiency (LE): 0.37; Hill coefficient (nH): 1.77; inhibition at 500 µM [2]: 88.3 ± 14.2%
38 | CN(C)c1ccc(/C=N/c2nnc(-c3ccccc3)o2)cc1 [Fragment 4] | 78 ± 2.3 | ligand efficiency (LE): 0.25; IC50 (TbSir2rp1, read-out: IC50): 94.4 µM; Hill coefficient (nH): 1.10; inhibition at 500 µM [2]: 78.4 ± 2.3%
39 | O=c1ccc2ccccc2[nH]1 [Fragment 6] | 60 ± 5.5 | ligand efficiency (LE): 0.41; Hill coefficient (nH): 1.19; inhibition at 500 µM [2]: 59.7 ± 5.5%
40 | Clc1cc2cn[nH]c2cn1 [Fragment 7] | 61 ± 9.1 | inhibition at 500 µM [2]: 60.6 ± 9.1%
41 | O=C1Cc2cnccc2CN1 [Fragment 8] | 55 ± 4.8 | inhibition at 500 µM [2]: 55.5 ± 4.8%
42 | Cc1ccc(S(=O)(=O)N(C)/N=C/c2cccs2)cc1 [Fragment 9] | 65 ± 1.7 | inhibition at 500 µM [2]: 64.8 ± 1.7%
43 | N=C(N)N/N=C/c1cccs1 [Fragment 10] | 56 ± 4.9 | inhibition at 500 µM [2]: 55.7 ± 4.9%
44 | O=C(/C=C/c1ccccc1Cl)c1ccc2c(c1)OCO2 [Fragment 12] | 102 ± 5.9 | inhibition at 500 µM [2]: 102 ± 5.9%
45 | O=C1C(O)=C(Nc2ccccc2)C(=O)c2ccccc21 [Fragment 13] | 95 ± 4.9 | inhibition at 500 µM [2]: 95.3 ± 4.9%
46 | C1CN2CCN1CC2 [N1(CC2)CCN2CC1] | 2.7 ± 2.6 | 

Row | Compound | inhibition at 500 µM [1] [%] | also measured
47 | NC(N)=NS(=O)(=O)c1ccc(N)cc1 [N/C(N)=N\S(=O)(C1=CC=C(N)C=C1)=O] | 1.8 ± 1.9 | 
48 | N/C(=N/c1ccccc1)Nc1ccccc1 [N/C(NC1=CC=CC=C1)=N/C2=CC=CC=C2] | 2.6 ± 1.1 | 
49 | Nc1ccc(S(=O)(=O)c2ccc(N)cc2)cc1 [NC1=CC=C(S(C2=CC=C(N)C=C2)(=O)=O)C=C1] | 48 ± 4.1 | 
50 | Nc1cccc([N+](=O)[O-])c1 [NC1=CC=CC([N+]([O-])=O)=C1] | 27 ± 0.91 | 
51 | Nc1nnc(-c2ccccc2)o1 [NC1=NN=C(O1)C2=CC=CC=C2] | 16 ± 0.61 | 
52 | NNC(=O)/C=C/c1ccccc1 [NNC(/C=C/C1=CC=CC=C1)=O] | 42 ± 8.5 | 
53 | NNS(=O)(=O)c1ccc(Cl)cc1 [NNS(=O)(C1=CC=C(Cl)C=C1)=O] | 37 ± 24 | 
54 | Cc1ccc(S(=O)(=O)NN)cc1 [NNS(C1=CC=C(C)C=C1)(=O)=O] | 53 ± 5.2 | 
55 | CC1(C)CCC2=C(O1)c1ccccc1C(=O)C2=O [O=C1C2=C(OC(C)(C)CC2)C3=CC=CC=C3C1=O] | 43 ± 5.2 | 
56 | O=C1NCCn2cccc21 [O=C1C2=CC=CN2CCN1] | -35 ± 5 | 
57 | O=C1CCSc2nc(-c3ccccc3)nn21 [O=C1CCSC2=NC(C3=CC=CC=C3)=NN21] | 3 ± 1.7 | 
58 | O=C1Nc2ccccc2C1=O [O=C1NC2=C(C=CC=C2)C1=O] | 49 ± 0.31 | 
59 | O=c1[nH]nc(-c2ccccc2)[nH]1 [O=C1NC(C2=CC=CC=C2)=NN1] | 0.91 ± 7.3 | 
60 | O=C1NC(=O)C(c2ccccc2)(c2ccccc2)N1 [O=C1NC(C(C2=CC=CC=C2)(C3=CC=CC=C3)N1)=O] | 52 ± 2.3 | 
61 | O=C(/C=C/c1ccc(Cl)cc1)c1cccs1 [O=C(/C=C/C1=CC=C(Cl)C=C1)C2=CC=CS2] | 32 ± 8.5 | 
62 | COC1=CC(=O)c2ccccc2C1=O [O=C(C1=C2C=CC=C1)C(OC)=CC2=O] | 44 ± 3.7 | 
63 | CC1(C)CCC2=C(O1)C(=O)c1ccccc1C2=O [O=C(C1=C2OC(C)(C)CC1)C3=CC=CC=C3C2=O] | 33 ± 14 | 
64 | NNC(=O)c1ccncc1 [O=C(C1=CC=NC=C1)NN] | -4.9 ± 2.4 | 
65 | CCn1cc(C(=O)O)c(=O)c2ccc(C)nc21 [O=C(C1=CN(CC)C2=C(C=CC(C)=N2)C1=O)O] | -6.5 ± 2.2 | 
66 | NC(=O)c1cnccn1 [O=C(C1=NC=CN=C1)N] | 22 ± 1.5 | 
67 | CC(=O)NCCN1C(=O)CNC1=O [O=C(CN1)N(CCNC(C)=O)C1=O] | 5.8 ± 3.4 | 
68 | Cn1cnc2c1c(=O)[nH]c(=O)n2C [O=C(N1)N(C)C2=C(N(C)C=N2)C1=O] | 17 ± 4.4 | 
69 | Cn1c(=O)c2[nH]cnc2n(C)c1=O [O=C(N1C)N(C)C2=C(NC=N2)C1=O] | -2.1 ± 3 | 
